According to article PMC6037779, “Repurposing drugs to target the malaria parasite unfolding protein response” (Scientific Reports, 2018):
Read-outs that look alike come from different tables or passages of the source.

Assays:
PfGRP78-NBD = biological target: T1, PfGRP78-NBD (Plasmodium falciparum, UniProt Q05866); experiment: DSF thermal shift, PfGRP78-NBD; assay type: binding; details: compound 0.5 mM; shifts above or below 1 °C significant
T1 construct: His-tag (pET28-MHL, TEV site) (N, cleaved yes); made in house; host or cells: E. coli BL21(DE3)
Experimental: The Plasmodium and human GRP78 NBD differences were further characterized by measuring their interaction with ATP, ADP, and several compounds referenced in the literature as GRP78 inhibitors (Fig. 3a). Initially, their binding was determined using a DSF (Differential Scanning Fluorimetry) assay. In this assay, an interaction between the chaperone and a compound was measured as a change in the protein’s melting temperature (Tm), by subtracting the Tm of the protein by itself to the melting value of the protein in the presence of the compound. Differences above or below 1 °C between the melting temperatures (ΔTm) were considered indicative of a protein-compound interaction. As expected, the Plasmodium GRP78 chaperone interacted with both ATP and ADP. Four of the six compounds tested had significant effects on protein thermal stability (Fig. 3b).
DSF screening was carried out using a CFX96 Touch Real-Time PCR Detection System (BioRad, California). The PfGRP78-FL, PfGRP78-NBD wild type and mutant, and human GRP78-NBD were buffered in 25 mM hepes pH 7.5, 250 mM NaCl and assayed in a 96-well format. […]. The concentration was optimized for each protein to avoid saturation of the fluorescence detector. The GRP78 inhibitors were used at a final concentration of 0.5 mM. SYPRO Orange (Life Technologies, USA) was added as a fluorescence probe in a dilution of 1:1000. The experiments were conducted between 18 °C to 90 °C at a heating rate of 1 °C per minute. The recorded fluorescence reads were fitted to the Boltzmann sigmoid function using DMAN software. The inflection point of each fitted curve is defined as the melting temperature (Tm). The observed temperature shift, ΔTm, was recorded as the difference between Tm of the protein with ligand minus Tm of the protein without ligand. Thermal shifts above or below 1 °C were considered significant.

huGRP78-NBD [1] = biological target: T2, huGRP78-NBD (Homo sapiens, UniProt P11021); experiment: SPR (Biacore) binding to human GRP78-NBD
T2 construct: PfGRP78-NBD wild type and mutant, and human GRP78-NBD were buffered in 25 mM hepes pH 7.5
T2 sequence (P11021 26-407 limits assumed): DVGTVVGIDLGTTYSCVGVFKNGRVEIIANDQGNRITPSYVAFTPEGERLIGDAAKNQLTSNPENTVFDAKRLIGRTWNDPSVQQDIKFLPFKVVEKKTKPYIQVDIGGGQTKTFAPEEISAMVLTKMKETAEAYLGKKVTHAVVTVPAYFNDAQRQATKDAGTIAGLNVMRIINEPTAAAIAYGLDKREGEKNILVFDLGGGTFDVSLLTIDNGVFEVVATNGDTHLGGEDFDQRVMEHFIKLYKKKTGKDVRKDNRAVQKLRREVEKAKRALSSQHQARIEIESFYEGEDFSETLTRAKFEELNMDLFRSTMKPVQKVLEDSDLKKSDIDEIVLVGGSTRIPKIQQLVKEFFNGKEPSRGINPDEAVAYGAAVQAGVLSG
Experimental: (§1) To quantify the binding affinities of PfGRP78-NBD for the selected compounds, dissociation constants (Kd) were determined by surface plasmon resonance (SPR). […] Purified PfGRP78-FL, PfGRP78-NBD wild-type and mutant, and human GRP78-NBD were immobilized on a CM5 sensorchip using NHS/EDC coupling following the manufacturer protocol to a level of <10,000 RUs, a reference surfaces without immobilized proteins served as a control for nonspecific binding and refractive index changes. […] The running buffer was 10 mM HEPES, pH 7.4, 150 mM NaCl, 0.005% P20, 1% DMSO and 2 mM MgCl2. Buffer only injections were used as blanks. The Biacore responses recorded during the 30 seconds of the injection were used to estimate the association constant (kon) and the 300 seconds after the injection were used to estimate the dissociation constant (koff). All dissociation and kinetic constants were estimated using double subtracted sensorgrams[40] using BiaEvaluation Software (GE Healthcare). All the reported parasite dissociation constants (Kd) were estimated with affinity analysis, and all the reported human Kds were calculated from kinetic constants.

PfGRP78-NBD wt = biological target: T3, PfGRP78-NBD wt (Plasmodium falciparum, UniProt Q05866); experiment: biochemical; assay type: binding
T3 construct: His-tag (pET28-MHL, TEV site) (N, cleaved yes); made in house; host or cells: E. coli BL21(DE3)
Experimental: as §1

PfGRP78-NBD mut (Y39F) = biological target: T4, PfGRP78-NBD mut (Y39F) (Plasmodium falciparum, UniProt Q05866, Y39F); experiment: SPR (Biacore) binding to PfGRP78-NBD Y39F mutant; details: ± standard error, 25 °C, read-out: affinity constant (Kd) determined by SPR, PfGRP78-NBD mut
T4 construct: His-tag (pET28-MHL, TEV site) (N, cleaved yes); made in house; host or cells: E. coli BL21(DE3)
Experimental: To quantify the binding affinities of PfGRP78-NBD for the selected compounds, dissociation constants (Kd) were determined by surface plasmon resonance (SPR). […] Purified PfGRP78-FL, PfGRP78-NBD wild-type and mutant, and human GRP78-NBD were immobilized on a CM5 sensorchip using NHS/EDC coupling following the manufacturer protocol to a level of <10,000 RUs, a reference surfaces without immobilized proteins served as a control for nonspecific binding and refractive index changes. Seven different concentrations of the ligands between 0.4 nM to 1 mM, were injected in triplicate over the sensor chip at 30 µL/min in random order. The running buffer was 10 mM HEPES, pH 7.4, 150 mM NaCl, 0.005% P20, 1% DMSO and 2 mM MgCl2. Buffer only injections were used as blanks. The Biacore responses recorded during the 30 seconds of the injection were used to estimate the association constant (kon) and the 300 seconds after the injection were used to estimate the dissociation constant (koff). All dissociation and kinetic constants were estimated using double subtracted sensorgrams[40] using BiaEvaluation Software (GE Healthcare). All the reported parasite dissociation constants (Kd) were estimated with affinity analysis, and all the reported human Kds were calculated from kinetic constants.

Plasmodium falciparum W2 = experiment: In vitro growth inhibition assay (SYBR Green I), strain W2; assay type: cell-based; details: read-out: EC50, growth inhibition, P. falciparum W2
Experimental: (§2) A major goal of our study was to evaluate the drug target potential of P. falciparum GRP78, thus we evaluated the effect of the chaperone inhibition on the malaria parasite. Our approach took advantage of several GRP78 inhibitors (Fig. 3a) previously characterized against human cancer cell lines, which were commercially available[20],[24]–[27]. These compounds were tested against two different parasite strains with opposite sensitivity towards the antimalarial drug chloroquine, 3D7 (sensitive) and W2 (resistant). […] A synchronized P. falciparum culture, with over 80% ring forms, was used in the growth inhibition assay. Each strain was assayed at 0.5% parasitaemia and 1.5% hematocrit. A 190 µL aliquot of parasite culture was dispensed per well to microplates that were pre-dispensed with the compounds at various dilutions. […] Dilutions of GRP78 inhibitors and DHA were prepared in water with a final concentration of DMSO below 0.05% (v/v). […] After incubation, the plates were subject to a freeze-thaw cycle (−80 °C) and the parasite growth was quantified by the SYBR Green I method as previously described. Briefly, 100 µl of homogenized parasite culture was transferred into 96-well black plates. 100 µl of SYBR Green lysis buffer (2x SYBR Green I, 100 mM Tris-HCl pH 7.5, 10 mM EDTA, 0.016% Saponin and 1.6% Triton X-100) were added to each well. The plates were incubated at room temperature in darkness for 1 hour.
(§3) Growth inhibition experiments were conducted at least three times per compound. […] The statistical analysis was performed with the software Prism 7 (GraphPad Software, San Diego, CA).

[2] = tested on: Plasmodium falciparum 3D7; experiment: In vitro growth inhibition assay (SYBR Green I), strain 3D7; assay type: cell-based; details: read-out: EC50, growth inhibition, P. falciparum 3D7
Experimental: as §2, §3

HCT-116 = experiment: Growth inhibition of human cell line; assay type: cell-based
Experimental: as §3

PfGRP78-FL = biological target: T5, PfGRP78-FL (Plasmodium falciparum, UniProt Q05866, DEL449-452/N453V/P455G/Q454G/T226A); experiment: DSF thermal shift, PfGRP78 full-length; assay type: binding; details: read-out: ΔTm (DSF), PfGRP78-FL
T5 construct: His-tag (TEV site) (N, cleaved yes); made in house; host or cells: E. coli BL21(DE3); gene synthesized by Life Technologies
Experimental: (§4) Initially, their binding was determined using a DSF (Differential Scanning Fluorimetry) assay. In this assay, an interaction between the chaperone and a compound was measured as a change in the protein’s melting temperature (Tm), by subtracting the Tm of the protein by itself to the melting value of the protein in the presence of the compound. Differences above or below 1 °C between the melting temperatures (ΔTm) were considered indicative of a protein-compound interaction.
(§5) DSF screening was carried out using a CFX96 Touch Real-Time PCR Detection System (BioRad, California). The PfGRP78-FL, PfGRP78-NBD wild type and mutant, and human GRP78-NBD were buffered in 25 mM hepes pH 7.5, 250 mM NaCl and assayed in a 96-well format. The final concentration of the protein sample was optimized between 0.05 and 0.2 mg/ml for each protein. The concentration was optimized for each protein to avoid saturation of the fluorescence detector. The GRP78 inhibitors were used at a final concentration of 0.5 mM. SYPRO Orange (Life Technologies, USA) was added as a fluorescence probe in a dilution of 1:1000.

huGRP78-NBD [3] = biological target: T2, huGRP78-NBD; experiment: DSF thermal shift, human GRP78-NBD; assay type: binding; details: compound 0.5 mM
Experimental: as §4, §5

[4] = ± standard error, calculated from kinetic constants, 25 °C
[5] = ± standard error, affinity analysis, 25 °C
[6] = Plasmodium falciparum, W2, 72 h
[7] = Plasmodium falciparum, 3D7, 72 h

Row | Structure (SMILES) | DSF effect on thermal stability of PfGRP78-NBD (PfGRP78-NBD) | affinity constant (Kd) determined by SPR, huGRP78-NBD (huGRP78-NBD [1]; [4]) | affinity constant (Kd) determined by SPR, PfGRP78-NBD wt (PfGRP78-NBD wt; [5]) | EC50 (Plasmodium falciparum W2; [6]) [nM] | EC50 [2, 7] [nM] | also measured
1 | CCN(CC)c1ncnc2c1ncn2[C@H]1O[C@@H](COP(=O)(O)OP(=O)(O)C(Br)(Br)P(=O)(O)O)[C@H](O)[C@@H]1O [ARL-67156] | non-binders | N.B. | N.B. |  |  | 
2 | Nc1ncnc2c1ncn2[C@@H]1O[C@H](COP(=O)(O)OP(=O)(O)OP(=O)(O)O)[C@@H](O)[C@H]1O [ATP] | interacted |  |  |  |  | Kd (huGRP78-NBD [1]; ± standard error, calculated from kinetic constants, 25 °C, read-out: affinity constant (Kd) determined by SPR, huGRP78-NBD): 14000 ± 7000 nM; Kd (PfGRP78-NBD mut (Y39F)): 312000 ± 15000 nM; fold decrease in affinity of malaria chaperone compared to the human counterpart (PfGRP78-NBD wt; SPR Kd, PfGRP78-NBD vs huGRP78-NBD): 23 fold; Kd (PfGRP78-NBD wt; ± standard error, affinity analysis, 25 °C, read-out: affinity constant (Kd) determined by SPR, PfGRP78-NBD wt): 333000 ± 74000 nM
3 | CCN(CC)CCCC(C)Nc1ccnc2cc(Cl)ccc12 (centres unmarked) [CQ, chloroquine] |  |  |  | 230 ± 30 | 50 ± 11 | 
4 | C[C@H]1[C@@H](O)O[C@@H]2O[C@@]3(C)CC[C@H]4[C@H](C)CC[C@@H]1[C@@]24OO3 [DHA] |  |  |  |  |  | EC50 (Plasmodium falciparum W2; chloroquine-resistant strain, 72 hours, average of three ± SD): 0.1 ± 0.02 nM; EC50 ([2]; chloroquine-sensitive strain, 72 hours, average of three ± SD): 0.4 ± 0.07 nM
5 | CN(NC(=O)CC(=O)NN(C)C(=S)c1ccccc1)C(=S)c1ccccc1 [Elesclomol] | non-binders | N.B. | N.B. |  |  | EC50 (Plasmodium falciparum W2; Plasmodium falciparum, W2, chloroquine-resistant strain, 72 hours, average of three ± SD): 60 ± 10 nM; EC50 ([2]; Plasmodium falciparum, 3D7, chloroquine-sensitive strain, 72 hours, average of three ± SD): 50 ± 17 nM
6 | C=Cc1cc(OC)c2c(c1)c(=O)oc1c2cc(OC)c2c(O)ccc(C3OC(C(C)O)C(O)C3O)c21 (centres unmarked) [Gilvocarcin V] | increased the thermal stability | N.B. | N.B. | 80 ± 40 | 20 ± 4 | affinity constant (Kd) determined by SPR, huGRP78-NBD (huGRP78-NBD [1]; ± standard error, calculated from kinetic constants, 25 °C, listed as Gilvocarcin A): too weak to accurately determine its dissociation constant; affinity constant (Kd) determined by SPR, PfGRP78-NBD wt (PfGRP78-NBD wt; ± standard error, affinity analysis, 25 °C, listed as Gilvocarcin A): too weak to accurately determine its dissociation constant
7 | CCn1c(=O)/c(=C2\Sc3ccccc3N2C)s/c1=C\c1cccc[n+]1CC [MKT-077] | significant thermal destabilization |  |  | 70 ± 30 | 70 ± 20 | times more selective towards P. falciparum (HCT-116; HCT-116 vs P. falciparum EC50, Results text b30): 14 times; EC50 (HCT-116; Homo sapiens, HCT-116, read-out: EC50, growth inhibition, HCT-116): 980 ± 230 nM; ΔTm at 500 µM (PfGRP78-FL): 0.6 °C; Kd (huGRP78-NBD [1]): 16000 ± 170 nM; Kd (PfGRP78-NBD wt): 16400 ± 1700 nM; DSF effect on thermal stability of human GRP78-NBD (huGRP78-NBD [3]): destabilized
8 | N#Cc1ccc(COCC2OC(n3c(NCc4ccc(Cl)c(Cl)c4)nc4c(N)ncnc43)C(O)C2O)cc1 (centres unmarked) [VER-155008] | increased the thermal stability |  |  | 39500 | 82100 ± 49700 | EC50 (HCT-116; HCT-116, human cell line, average of three ± SD, read-out: EC50, growth inhibition, HCT-116): 15710 ± 70 nM; Kd (PfGRP78-NBD wt): 164000 ± 13600 nM
